Test results: patent US20260250320A1, “LIPIDATED PEPTIDE INHIBITORS OF INTERLEUKIN-23 RECEPTOR” (Janssen Pharmaceutica NV, priority 2023, published 2026)
*1 amine or outer side, *2 acyl side, *3 side chain or, on linkers, in order; H or OH if unused. Where a SMILES comes first, the peptide text is derived from it. Bridges are numbered along the chain shown (N, C = ends). Side-chain parts run from the residue outwards. [ ]: non-standard residue; d: D form. The star is where a group is joined. X9 = O=C(O)CCCCCCCCCCCCCCCCC(=O)N[C@@H](CCC(=O)NCCOCCOCCOCCOCCOCCOCCOCCOCCOCCOCCOCCCCCC(=O)*)C(=O)O; X4 = C[N+](C)(CCCCCCc1ccc(C[C@H](N[*:1])C(=O)[*:2])cc1)CCOCCOCCN[*:3]; Me3N+(CH2)2O(CH2)2O(CH2)2CO = C[N+](C)(C)CCOCCOCCC(=O)*; CH2CH2OCH2CH2OCH2CH2NMe3+ = C[N+](C)(C)CCOCCOCC*; Trp(7-Me) = Cc1cccc2c(C[C@H](N)C(=O)O)c[nH]c12; C18 diacid = O=C(O)CCCCCCCCCCCCCCCCC(=O)*; γGlu = O=C(O)[C@H](CCC(=O)[*:2])N[*:1]; 2Nal = N[C@@H](Cc1ccc2ccccc2c1)C(=O)O; AEF = NCCOc1ccc(C[C@H](N)C(=O)O)cc1; X26 = C[N+](C)(CCN[*:1])CC(=O)[*:2]; PEG6 = NCCOCCOCCOCCOCCOCCOCCC(=O)O; X2 = C[N+](C)(C)C[C@@H](CC(=O)O)N*; 3Pal = N[C@@H](Cc1cccnc1)C(=O)O; Lys(Me) = CNCCCC[C@H](N)C(=O)O; NMeK = CN[C@@H](CCCCN)C(=O)O; Pen = CC(C)(S)[C@H](N)C(=O)O; Suc = O=C(CCC(=O)[*:2])[*:1]; Thp = NC1(C(=O)O)CCOCC1; X1 = C[N+](C)(C)CCCCC*; AEEA = NCCOCCOCC(=O)O; Sar = CNCC(=O)O

Tests used:
IL-23R = biological target: T1, IL-23R (Homo sapiens, UniProt Q5VWK5); test: IL23R Reporter Assay; type: cell-based; settings: HEK293 cells containing IL-23R, IL-12Rβ1 and STAT-inducible firefly luciferase reporter; 10 ng/mL IL-23 (EC90); 5 h
T1 construct: HEK293 cells containing IL-23R, IL-12Rβ1 and a firefly luciferase reporter gene driven by a STAT-inducible promoter (Promega); host or cells: HEK293
T1 sequence (Q5VWK5 24-629): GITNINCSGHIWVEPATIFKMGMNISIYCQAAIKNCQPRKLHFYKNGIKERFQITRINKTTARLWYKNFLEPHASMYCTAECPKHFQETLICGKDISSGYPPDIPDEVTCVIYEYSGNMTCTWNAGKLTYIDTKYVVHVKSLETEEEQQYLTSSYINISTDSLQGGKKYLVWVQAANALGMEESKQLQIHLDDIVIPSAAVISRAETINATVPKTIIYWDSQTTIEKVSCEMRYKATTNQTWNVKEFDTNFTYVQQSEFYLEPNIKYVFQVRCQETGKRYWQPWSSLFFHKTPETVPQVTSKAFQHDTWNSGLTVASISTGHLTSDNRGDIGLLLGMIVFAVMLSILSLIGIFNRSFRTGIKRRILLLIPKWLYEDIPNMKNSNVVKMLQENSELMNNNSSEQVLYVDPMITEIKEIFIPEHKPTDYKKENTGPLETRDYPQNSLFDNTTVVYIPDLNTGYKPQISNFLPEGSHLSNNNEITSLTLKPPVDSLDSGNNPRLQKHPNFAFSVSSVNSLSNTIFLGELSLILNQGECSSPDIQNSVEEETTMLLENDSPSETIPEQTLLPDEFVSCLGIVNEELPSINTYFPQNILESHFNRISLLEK
Summary of the method: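 HEK293 cells carrying IL-23R, IL-12Rβ1 and a STAT-driven firefly luciferase reporter (4000 cells/well) received compound, then 10 ng/mL IL-23 solution (EC90), and were incubated for 5 h at 37° C. BioGlo luminescence was normalised to IL-23 alone (0%) and 30 μM control inhibitor (100%). IC50 came from a 4-parameter Hill fit.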

[1] = system: IL-23-stimulated phosphorylated STAT3 in peripheral blood mononuclear cells (PBMCs); test: PBMC pSTAT3 Assay; type: cell-based; settings: PBMCs from healthy donors; 30 min preincubation with peptide; IL-23 5 ng/mL for 30 min; phospho-STAT3 by MSD
Summary of the method: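 Healthy-donor PBMCs expanded 4 days on anti-CD3 with 100 ng/mL IL-1β, starved ~4 h in RPMI-0.1% BSA, preincubated 30 min with peptide, then stimulated 30 min at 37 °C with 5 ng/mL IL-23. Lysate pSTAT3 measured by MSD phospho-STAT panel; IC50 derived.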

CC(=O)N[C@@H]1C(=O)N[C@@H](CC(N)=O)C(=O)N[C@@H]([C@@H](C)O)C(=O)N[C@@H](Cc2c[nH]c3ccccc23)C(=O)N[C@@H](CCCCNC(=O)CCOCCOCCOCCOCCOCCOCCOCCOCCOCCOCCOCCOCCNC(=O)CC[C@H](NC(=O)CCCCCCCCCCCCCCCCC(=O)O)C(=O)O)C(=O)N[C@H](C(=O)N[C@@H](Cc2ccc(OCCN)cc2)C(=O)N[C@@H](Cc2ccc3ccccc3c2)C(=O)NC2(C(=O)N[C@@H](CCC(=O)O)C(=O)N[C@@H](CC(N)=O)C(=O)N[C@@H](Cc3cccnc3)C(=O)N(C)CC(N)=O)CCOCC2)C(C)(C)SSC1(C)C [compound 96, MeCO-Pen(3)-N-T-7MeW-K(PEG12gEC18OH)-Pen(3)-AEF-2Nal-THP-E-N-3Pya-Sar-CONH2]
IC50 (IL-23R): < 0.05 µM
IC50 [1]: < 0.0005 µM

CC(=O)N(C)CCCC[C@@H]1NC(=O)[C@H](Cc2c[nH]c3c(C)cccc23)NC(=O)[C@H]([C@@H](C)O)NC(=O)[C@H](CC(=O)N(C)C)NC(=O)[C@@H](NC(=O)COCCOCCNC(=O)C[N+](C)(C)CCNC(=O)COCCOCCNC(=O)CC[C@H](NC(=O)CCCCCCCCCCCCCCCCC(=O)O)C(=O)O)C(C)(C)SSC(C)(C)[C@@H](C(=O)N[C@@H](Cc2ccc(OCCOCCOCC[N+](C)(C)C)cc2)C(=O)N[C@@H](Cc2ccc3ccccc3c2)C(=O)NC2(C(=O)N[C@@H](CCCCN(C)C(C)=O)C(=O)N[C@@H](CC(N)=O)C(=O)N[C@@H](Cc3cccnc3)C(=O)N(C)CC(=O)N(C)C)CCOCC2)NC1=O [compound 89, HOC18gEPEG2SP6PEG2CO-Pen(3)-N(N(Me)2)-T-7MeW-K(NMeAc)-Pen(3)-APEG3F-2Nal-THP-K(NMeAc)-N-3Pya-Sar-CON(Me)2] ({C18 diacid-γGlu-AEEA}-[X26][AEEA][Pen]D(NMe2)T[Trp(7-Me)][Lys(Me)](Ac)[Pen]Y(CH2CH2OCH2CH2OCH2CH2NMe3+)[2Nal][Thp][Lys(Me)](Ac)N[3Pal][Sar]-NMe2; disulfide 3-8)
IC50 (IL-23R): < 0.05 µM
IC50 [1]: < 0.0005 µM

CC(=O)N(C)CCCC[C@@H]1NC(=O)[C@H](Cc2c[nH]c3c(C)cccc23)NC(=O)[C@H]([C@@H](C)O)NC(=O)[C@H](CC(=O)N(C)C)NC(=O)[C@@H](NC(=O)CCOCCOCC[N+](C)(C)C)C(C)(C)SSC(C)(C)[C@@H](C(=O)N[C@@H](Cc2ccc(OCCOCCOCC[N+](C)(C)C)cc2)C(=O)N[C@@H](Cc2ccc3ccccc3c2)C(=O)NC2(C(=O)N[C@@H](CCCCN(C)C(C)=O)C(=O)N[C@@H](CC(N)=O)C(=O)N[C@@H](Cc3cccnc3)C(=O)N(C)[C@@H](CCCCNC(=O)CCOCCOCCOCCOCCOCCOCCNC(=O)CC[C@H](NC(=O)CCCCCCCCCCCCCCCCC(=O)O)C(=O)O)C(N)=O)CCOCC2)NC1=O [compound 88, cPEG3aCO-Pen(3)-N(N(Me)2)-T-7MeW-K(NMeAc)-Pen(3)-APEG3F-2Nal-THP-K(NMeAc)-N-3Pya-NMeK(PEG6gEC18OH)-CONH2] ({Me3N+(CH2)2O(CH2)2O(CH2)2CO}-[Pen]D(NMe2)T[Trp(7-Me)][Lys(Me)](Ac)[Pen]Y(CH2CH2OCH2CH2OCH2CH2NMe3+)[2Nal][Thp][Lys(Me)](Ac)N[3Pal][NMeK]([PEG6-γGlu-C18 diacid])-NH2; disulfide 1-6)
IC50 (IL-23R): < 0.05 µM
IC50 [1]: < 0.0005 µM

CC(=O)N(C)CCCC[C@@H]1NC(=O)[C@H](Cc2c[nH]c3c(C)cccc23)NC(=O)[C@H]([C@@H](C)O)NC(=O)[C@H](CCCCNC(=O)CCCCCOCCOCCOCCOCCOCCOCCOCCOCCOCCOCCOCCNC(=O)CC[C@H](NC(=O)CCCCCCCCCCCCCCCCC(=O)O)C(=O)O)NC(=O)[C@@H](NC(=O)CCOCCOCC[N+](C)(C)C)C(C)(C)SSC(C)(C)[C@@H](C(=O)N[C@@H](Cc2ccc(OCCCCC[N+](C)(C)C)cc2)C(=O)N[C@@H](Cc2ccc3ccccc3c2)C(=O)NC2(C(=O)N[C@@H](CCCCN(C)C(C)=O)C(=O)N[C@@H](CC(N)=O)C(=O)N[C@@H](Cc3cccnc3)C(=O)N(C)CC(=O)N(C)C)CCOCC2)NC1=O [compound 116, HOC18gEPEG12CO-Pen(3)-N-T-K(Ac)-Pen(3)-AEF-2Nal-THP-E-N-3Pya-Sar-CONH2] ({Me3N+(CH2)2O(CH2)2O(CH2)2CO}-[Pen]K(X9)T[Trp(7-Me)][Lys(Me)](Ac)[Pen]Y(X1)[2Nal][Thp][Lys(Me)](Ac)N[3Pal][Sar]-NMe2; disulfide 1-6)
IC50 (IL-23R): < 0.05 µM
IC50 [1]: < 0.0005 µM

CC(=O)NCCCC[C@@H]1NC(=O)[C@H](Cc2c[nH]c3c(C)cccc23)NC(=O)[C@H]([C@@H](C)O)NC(=O)[C@H](CC(N)=O)NC(=O)[C@@H](NC(=O)COCCOCCNC(=O)COCCOCCNC(=O)CC[C@H](NC(=O)CCCCCCCCCCCCCCCCC(=O)O)C(=O)O)C(C)(C)SSC(C)(C)[C@@H](C(=O)N[C@@H](Cc2ccc(OCCN)cc2)C(=O)N[C@@H](Cc2ccc3ccccc3c2)C(=O)NC2(C(=O)N[C@@H](CCCCNC(=O)CCC(=O)N[C@H](CC(=O)O)C[N+](C)(C)C)C(=O)N[C@@H](CC(N)=O)C(O)N[C@@H](Cc3cccnc3)C(=O)N(C)CC(N)=O)CCOCC2)NC1=O (stereo partly drawn) [compound 44, HOC18gEPEG2PEG2CO-Pen(3)-N-T-7MeW-K(Ac)-Pen(3)-AEF-2Nal-THP-K(d)-N-3Pya-Sar-CONH2]
IC50 (IL-23R): < 0.05 µM
IC50 [1]: < 0.0005 µM

CC(=O)N(C)CCCC[C@@H]1NC(=O)[C@H](Cc2c[nH]c3c(C)cccc23)NC(=O)[C@H]([C@@H](C)O)NC(=O)[C@H](CC(=O)N(C)C)NC(=O)[C@@H](NC(=O)CCOCCOCC[N+](C)(C)C)C(C)(C)SSC(C)(C)[C@@H](C(=O)N[C@@H](Cc2ccc(CCCCCC[N+](C)(C)CCOCCOCCNC(=O)COCCOCCNC(=O)CC[C@H](NC(=O)CCCCCCCCCCCCCCCCC(=O)O)C(=O)O)cc2)C(=O)N[C@@H](Cc2ccc3ccccc3c2)C(=O)NC2(C(=O)N[C@@H](CC(N)=O)C(=O)N[C@@H](Cc3cccnc3)C(=O)N(C)CC(=O)N(C)C)CCOCC2)NC1=O [compound 143, cPEG3aCO-Pen(3)-N(N(Me)2)-T-7MeW-K(NMeAc)-Pen(3)-TMAPF(PEG2PEG2gEC18OH)-2Nal-THP-N-3Pya-Sar-CON(Me)2] ({Me3N+(CH2)2O(CH2)2O(CH2)2CO}-[Pen]D(NMe2)T[Trp(7-Me)][Lys(Me)](Ac)[Pen][X4]([AEEA-γGlu-C18 diacid])[2Nal][Thp]N[3Pal][Sar]-NMe2; disulfide 1-6)
IC50 (IL-23R): ≥ 0.5 µM
IC50 [1]: ≥ 0.005 µM

CC(=O)N[C@H](CCCNC(=N)N)C(=O)N[C@@H]1C(=O)N[C@@H](CC(N)=O)C(=O)N[C@@H]([C@@H](C)O)C(=O)N[C@@H](Cc2c[nH]c3c(C)cccc23)C(=O)N[C@@H](CCCCNC(=O)CCC(=O)N[C@H](CC(=O)O)C[N+](C)(C)C)C(=O)N[C@H](C(=O)N[C@@H](Cc2ccc(OCCN)cc2)C(=O)N[C@@H](Cc2ccc3ccccc3c2)C(=O)NC2(C(=O)N[C@@H](CCCCNC(=O)COCCOCCNC(=O)COCCOCCNC(=O)CC[C@H](NC(=O)CCCCCCCCCCCCCCCCC(=O)O)C(=O)O)C(=O)N[C@@H](CC(N)=O)C(=O)N[C@@H](Cc3cccnc3)C(=O)N(C)CC(N)=O)CCOCC2)C(C)(C)SSC1(C)C [compound 48, MeCO-r-Pen(3)-N-T-7MeW-K(d)-Pen(3)-AEF-2Nal-THP-K(PEG2PEG2gEC18OH)-N-3Pya-Sar-CONH2] (Ac-[dR][Pen]NT[Trp(7-Me)]K([Suc-X2])[Pen][AEF][2Nal][Thp]K([AEEA-AEEA-γGlu-C18 diacid])N[3Pal][Sar]-NH2; disulfide 2-7)
IC50 (IL-23R): 0.05 to 0.5 µM
IC50 [1]: < 0.0005 µM
